Experimental data: a melting point compilation (Tetko et al.; mined from patent text by program, amines drawn as free bases though some values may be those of a salt)

| SMILES | melting point [°C] |
| --- | --- |
| CCCCc1nccc2c([N+](=O)[O-])cccc12 | 69 to 69.5 |
| COc1ccc2nc(C)cc(NNC(=O)Nc3ccc(N(CCCl)CCCl)cc3)c2c1 | 184 to 186 |
| COc1cc(O)ccc1OCc1ccccc1 | 84 |
| CCOC(=O)C(F)(F)C(=O)[C@H](Cc1ccccc1)NC(=O)Cn1c(-c2cccc(C)c2)ncc(NC(=O)OCc2ccccc2)c1=O | 138 to 140 |
| CCCCCCCCOc1ccc(C(=O)Oc2ccc(-c3ccc(O)cc3)cc2)cc1 | 183 |
| CCOC(C)O[C@H]1C(=O)N(C(=O)OC(C)(C)C)[C@H]1C=Cc1ccccc1 (stereo partly drawn) | 69 to 73 |
| CC12CCC(=O)C=C1CCC1C2CCC2(C)C(C(=O)NC3C4CC5CC(C4)CC3C5)CCC12 (stereo not drawn) | 244 to 246 |
| O=c1cc(O)c(Cl)cn1COCc1ccccc1 | 165 to 167 |
| O=C1NCCc2sccc21 | 94 |
| COC(C)=CC(=O)Nc1cccc(C(F)(F)F)c1 | 90 |
| Cc1nc(-n2cnn(CC3CC3(F)F)c2=O)sc1C(=O)NCc1cccnc1 (stereo not drawn) | 160 to 161 |
| CCCc1ccc(Cc2c(C(F)(F)F)[nH][nH]c2=O)cc1 | 114 to 116 |
| C#Cc1cc(F)c(-n2c(=O)cc(C(F)(F)F)n(C)c2=O)cc1OCC | 140 |
| CC(=O)C(C)(CO)CO | 60 |
| COc1cc(Cl)c(N)cc1-c1nc(C)c(-c2cccnc2)[nH]1 | 173 to 175 |
| Nc1cc(OC(F)(F)C(F)Cl)c(OC(F)(F)C(F)Cl)cc1N (stereo not drawn) | 58 to 60 |
| CN1C(NCc2ccccc2)=Nc2ccncc2S1(=O)=O | 142 to 146 |
| O=c1[nH]c2cc(O)ccc2n1CCN1CCN(c2cccc(C(F)(F)F)c2)CC1 | 275 |
| CN(C)CCN1CCC(Nc2nc3ccccc3n2Cc2ccc(F)cc2)CC1 | 166 |
| COc1ccc(Cc2ccc(CO)nc2)cc1 | 55 to 58 |
| CN(C)CCCNC(=S)Nc1ccccc1 | 112 to 114 |
| COc1ccccc1NC(=O)Nc1nc(Nc2ccccc2-c2ccccc2)nc(N(CCC(=O)O)Cc2ccc(F)c(F)c2)n1 | 115 to 120 |
| CC(=O)NNc1ccc(N=Cc2ccccc2)cc1 | 172 to 174 |
| CSC(=S)C1(c2ccccn2)SCCCS1 | 91 |
| Cn1cnc2c3ncc(Cl)cc3ccc21 | 188 to 189 |

| SMILES | melting point [°C] |
| --- | --- |
| Cc1ccc(=O)n(-c2cc(-c3ccnc(Nc4cccc(Cl)c4)n3)ccn2)n1 | 187 to 189 |
| CCCOc1ccc(S(=O)(=O)N2CCN(CC)C(C(=O)OCC)C2)cc1-c1nc2cc3nc[nH]c3cc2c(=O)[nH]1 (stereo not drawn) | 158 to 163 |
| CCOC(=O)/C=C/c1ccc(OCc2nc(C)c(C)nc2C)c(OC)c1 | 112 |
| COc1ccc(Nc2ccc(Nc3ncnc4cc(-c5ccc(OC)cc5)sc34)cc2)cc1 | 159 to 169 |
| COc1ccc2c(c1)C=C(CN1CCC3(CC1)C(=O)NCN3c1ccccc1)CC2 | 184 to 186 |
| COC(=O)C1=CCC(=C2CCc3nc4c(nc3C2=O)C(C)(C)CCC4(C)C)C=C1 | 149 to 151 |
| COc1ccc(C(F)(F)C(F)(F)F)cc1C(C)=O | 47 |
| CC12CCC3C(CCC4C(=O)CCCC43C)C1CCC2O (stereo not drawn) | 123 to 126 |
| OP(O)C(NC(c1ccccc1)c1ccccc1)c1c[nH]c2ccccc12 (stereo not drawn) | 154 |
| Cc1c(C)c2c(c(C)c1N)CC(C)(CN1CCCCC1)O2 (stereo not drawn) | 60 to 61 |
| CCOC(=O)NCCc1ccccc1 | 47 to 48 |
| O=C(Nc1ccccc1)OCc1ccccc1 | 92 to 96 |
| CC1(C)CCc2ccccc2C1n1cncc1C1SCCS1 (stereo not drawn) | 109 |
| Nc1nc(CCl)cc(OCC(F)(F)F)n1 | 77 to 78 |
| C#CCC(C)C(=O)N1c2ccccc2C(=O)Nc2cccnc21 (stereo not drawn) | 202 to 204 |
| CC(C)(Cc1c[nH]c2ccccc12)NCC(O)COc1ccccc1Cl (stereo not drawn) | 150 to 154 |
| COc1cccc(CN2CCCCC2C(=O)O)c1 (stereo not drawn) | 186 to 187 |
| COc1ccc(N2CCN(n3cnn(C)c3=O)CC2)cc1 | 178 |
| COC(=O)c1c(/C=C/c2ccccc2)ccc2ccccc12 | 68 to 71 |
| COc1cc2c(cc1OC)CN(c1c(C)c(C)c3c(c1C)C(c1ccc(C(C)C)cc1)C(C)(C)O3)C2 (stereo not drawn) | 153 to 155 |
| CCOc1cc(-c2cc(C(F)(F)F)n3ncc(-c4ccncc4)c3n2)ccc1C(F)(F)F | 251 |
| Nc1nc(-c2ccc(-c3ccccc3)cc2)cn1N | > 280 |
| CCOP(=O)(OCC)C1CCc2c(-n3cccc3)c(C(F)(F)F)cc3[nH]c(=O)c(=O)n1c23 (stereo not drawn) | 268 |
| Brc1ccc2nc(Br)nn2c1 | 201 |
| CC(C)CNC(=O)[C@H](C)C[C@H](O)[C@H](CC1CCCCC1)NC(=O)[C@H](Cc1cscn1)NC(=O)OC(C)(C)C | 178 to 180 |

The remaining lines, values ahead:

| melting point [°C] | SMILES |
| --- | --- |
| 177 to 178 | COc1ccc(S(=O)(=O)n2c(N)nc3c2c(=O)n(CC2CC2)c(=O)n3CC2CC2)cc1 |
| 115 to 118 | O=C1N(C(c2ccccc2)c2ccccc2)c2ccccc2C1(O)c1cc2c(cc1O)OCCCO2 (stereo not drawn) |
| 70 to 74 | CCC1c2cccn2-c2ccc(Cl)cc2N1C(=O)c1ccc(OC)cc1OC (stereo not drawn) |
| 220 | COc1ccc(S(=O)(=O)C(C(=O)NO)C(C)C)cc1 (stereo not drawn) |
| 155 to 156 | CS(=O)(=O)c1ccc(-c2cc([N+](=O)[O-])sc2-c2ccc(F)cc2)cc1 |
| 149 to 151 | CCC(=O)NCCC1=C(Cc2ccccc2)Cc2ccc(OC)cc21 |
| > 270 | Cc1c(F)c(F)cc2c1c(=O)c(C(=O)O)cn2-c1cc(N)c(F)cc1F |
| 200 to 203 | Cc1cc(OCc2sc(-c3ccc(C(F)(F)F)cc3)nc2C)ccc1/C=C/C(=O)O |
| 141 to 145 | COC(=O)[C@H](Cc1cc(Cl)c(OCc2cccc3cc(-c4ccccc4)oc23)c(Cl)c1)NC(=O)C(F)(F)F |
| 108 to 111 | CCOC(=O)C(=Cc1cccc([N+](=O)[O-])c1)C(=O)CCl |
| 180 | COc1cc(OC)nc(NC(=O)NS(=O)(=O)c2ccccc2C=O)n1 |
| 79 to 82 | COc1c(Nc2ncc(Cl)c(Nc3ccccc3S(=O)(=O)N3CCCC3)n2)ccc2c1CCCC(NCCO)C2 (stereo not drawn) |
| 116 to 118 | CCN(CC)CCCNc1nnc(-c2ccc(F)c(F)c2Nc2ccc(I)cc2F)o1 |
| 78 | O=C(O)Cc1cccc(CCNC(=O)C2Cc3ccccc3N2S(=O)(=O)c2ccc(-c3ccccc3C(F)(F)F)cc2)c1 (stereo not drawn) |
| 198 to 200 | NC(=O)c1ccc(-c2ccc3nnn(Cc4ccc5ncccc5c4)c3n2)cc1F |
| 110 to 112 | O=Cc1ccc(OC(=O)c2ccccc2)c([N+](=O)[O-])c1 |
| 249 to 250 | NC(=O)c1ccc2c(c1-c1c(C(N)=O)ccc3c1OCO3)OCO2 |
| 119 to 121 | CCOC(=O)c1c(-c2ccccc2)c2c3ccccc3ccn2c1C |
| 211 | CS(=O)(=O)Nc1ccc(C=C2c3ccccc3CCc3ccccc32)cc1 |
| 180 to 183 | Cc1cc(Nc2ccccc2C(=O)O)n(Cc2cccnc2)n1 |
| 220 to 226 | NC(=O)CN1C(=O)COc2cc(F)c([N+](=O)[O-])cc21 |
| 191 to 192 | O=S(=O)(Nc1ccc2c(OCc3csc(-c4ccc(F)cc4F)n3)cccc2c1)C(F)(F)F |
| 121 to 123 | CCCCn1nnc(-c2ccc(C(=O)NCC3CCCC3(C)C)cc2)n1 (stereo not drawn) |
| 52 | CCCCOC(=O)c1ccc2ccc(C)nc2c1OC(=O)C(C)(C)C |

| melting point [°C] | SMILES |
| --- | --- |
| 81 to 82 | COc1cccc2c1CCC(COS(=O)(=O)c1ccc(C)cc1)C2 (stereo not drawn) |
| 235 to 238 | C[C@H](CN1CC(C#N)C1)NC(=O)c1c[nH]c2ncc(-c3nn(C)c4cc(Cl)ccc34)nc12 |
| 273 to 276 | CCOC(=O)c1c(-c2ccc(OC)c(OC)c2)c2cc(OC)c(OC)cc2[nH]c1=O |
| 210 to 212 | O=C(Nc1ccc(Cl)cc1)Nc1c(C(O)(C(F)(F)F)C(F)(F)F)ccc2ccccc12 |
| 223 to 226 | Nc1nc(F)cc(Oc2ccc(Cl)cc2)n1 |
| 116 | COC(=O)C(=O)c1occc1/C=C/c1ccccc1 |
| 211 to 212 | Cc1c(-c2ccccc2)c(N2CC(N(C)C)C2)c2oc(C(C)(C)C)nc2c1C#N |
| 214 | CCOC(=O)C1=C(c2ccccc2)Nc2n[nH]cc2C1c1cccc(Cl)c1Cl (stereo not drawn) |
| 240 to 242 | Cc1cc(C2(C(F)(F)F)CC(C(F)(F)F)=NO2)ccc1NC(=O)c1cccc(I)c1C(=O)NC(C)C (stereo not drawn) |
| 53 to 55 | CCCCOC(=O)CCCOc1ccc(F)c(C(N)=O)c1F |
| 175 to 176 | CS(=O)(=O)c1ccc(Oc2cc(OCc3cccc(Cl)n3)c3[nH]c(C4=NCC(CC(=O)O)S4)cc3c2)cc1 (stereo not drawn) |
| 122 to 127 | Cc1cccc2c(-c3ccccc3)c([N+](=O)[O-])oc12 |
| 42 to 43 | Cc1cccc(C(=O)CC(=O)C2CCCCC2)c1O |
| 86 to 92 | C#CCN(Cc1ccc2nc(C)[nH]c(=O)c2c1)c1ccc(C(=O)NCc2cccc([N+](=O)[O-])c2)c(N)c1 |
| 126 to 127 | CCOC(=O)C1Cc2ccc(C(=O)c3ccc(NC(C)=O)c(Cl)c3)cc2C1 (stereo not drawn) |
| 133 to 134 | Cc1ccc(-c2cc(F)c(F)cc2-c2ccc(S(N)(=O)=O)cc2)cc1C |
| 121 | CC(C)c1ccc(N(Cc2ccc(N(C)C)cc2)C(=O)C2CCCc3ccccc32)cc1 (stereo not drawn) |
| 238 to 242 | Cn1cnc(S(=O)(=O)Nc2ccc(C(c3c(O)c4c(oc3=O)CCCCCC4)C3CC3)cc2)c1 (stereo not drawn) |
| 73 to 75 | CCCc1ccccc1OCCCOc1ccc2c(=O)cc(C(=O)OCC)oc2c1 |
| 195 to 196 | O=C(O)c1csnc1-c1ccc(C(F)(F)F)cc1 |
| 203 to 205 | COc1ccc2c(c1)SC(C#N)=C(N)CO2 |
| > 300 | NNC(=O)c1cnc2c(=O)[nH]c3ccccc3n2c1=O |
| 275 to 278 | CC1(C)CCC(C)(C)c2cc3c(cc21)CCc1nc(-c2ccc(C(=O)O)cc2)sc1-3 |
| 181 to 182 | CN(C(=O)Cc1[nH]c(=O)c2ccc(Cl)cc2c1-c1ccccc1)c1cc(C(F)(F)F)cc(C(F)(F)F)c1 |
